Measurements published in US20130303373A1, “USE OF A COMPOSITION FOR THE INCREASE OF CROP YIELD” (GLOBACHEM, priority 2010, published 2013).

What was measured:
[1] = test system: mature apple trees of the variety Jonagold, (mutant Jonagored); test: Yield increase with apple (fruit set and fruit size after spraying); type: in vivo
Description: This experiment was performed on mature apple trees of the variety Jonagold, (mutant Jonagored). The sprayings were performed with an atomizer, each time applying an amount of 300 liter of water per hectare.
S-abscisic acid (ABA) was applied alone as well as in combination with glutamine. The applications were started around the end of flowering and were repeated every 10 to 14 days. ABA was first applied in two consecutive treatments, each time using a concentration of 3.3 ppm wt, and thus in a dosing of 1.0 g/ha. The composition with glutamine was applied until the end of the growing season, and with a concentration of 50 ppm wt, and thus in a dosing of 15 g/ha. ABA was also in this test applied only twice, on April 24 and May 7. The applications of glutamine were started around the end of flowering and were repeated every 7 to 14 days, depending on the weather conditions. In total there were 7 treatments, more precisely on April 24, May 7, May 14, May 20, June 9, June 16 and June 24. Immediately after the treatments, on June 25, also the average fruit diameter was determined.

winter wheat = test: Yield increase with wheat (ear and grain parameters); type: in vivo
Description: This experiment was performed on winter wheat. ABA was applied to the winter wheat in two different doses, respectively 2 and 4 gram/hectare. The dose of 2 gram was repeated in combination with 5 g/ha of histidine.
The length of the ears (expressed in mm), the number of filled spikelets, the average number of grains counted per 50 ears, and as a quality parameter also the kernel weight of 1000 […] (“1000 kernel wt”) were determined.

SMILES: CC1=CC(=O)CC(C)(C)[C@@]1(O)/C=C/C(C)=C/C(=O)O [ABA, S-abscisic acid]
- Fruit diameter (mm) on June 25 ([1]; ABA 2 treatments at 1.0 g/ha, glutamine 7 treatments at 15 g/ha, measured June 25): 43.8 mm
- Nr of fruits per cluster ([1]; ABA 2 treatments at 3.3 ppm wt (1.0 g/ha), glutamine 7 treatments at 50 ppm wt (15 g/ha), 300 l water/ha): 0.80
- 1000 kernel wt (gram) (winter wheat; ABA 2 g/ha): 43.6 gram
- Ear Length (mm) (winter wheat; ABA 2 g/ha): 75 mm
- Nr. filled spikelets (winter wheat; ABA 2 g/ha): 9.9
- Nr. grains/50 ears (winter wheat; ABA 2 g/ha): 72.4
- 1000 kernel wt (gram) (winter wheat; ABA 4 g/ha): 44.8 gram
- Ear Length (mm) (winter wheat; ABA 4 g/ha): 78 mm
- Nr. filled spikelets (winter wheat; ABA 4 g/ha): 10.2
- Nr. grains/50 ears (winter wheat; ABA 4 g/ha): 84.7
